Results on 10 compounds are retold here after patent US20220251141A1, “IMMUNOMODULATORS” (Bristol-Myers Squibb Company, priority 2019, published 2022).

Bridge positions count the residues as written; N and C are the ends. Square brackets hold non-standard residues; d marks the D form. Peptide text beside a SMILES is read from it. * marks the point of attachment. Trp(1-CH2COOH) = N[C@@H](Cc1cn(CC(=O)O)c2ccccc12)C(=O)O; Trp(1-Me) = Cn1cc(C[C@H](N)C(=O)O)c2ccccc21; Phe(4-F) = N[C@@H](Cc1ccc(F)cc1)C(=O)O; Hyp = O=C(O)[C@@H]1C[C@@H](O)CN1; NMeNle = CCCC[C@H](NC)C(=O)O; Pen = CC(C)(S)[C@H](N)C(=O)O; Pip = O=C(O)[C@@H]1CCCCN1; Dab = NCC[C@H](N)C(=O)O; Dap = NC[C@H](N)C(=O)O; Piv = CC(C)(C)C(=O)*

The assay concerns the target T1, PD-1/PD-L1 (Homo sapiens, UniProt Q9NZQ7).
T1 construct: TVMV protease site linker (C); made in house; host or cells: HEK293T cells
Description: PD-1/PD-L1 Homogenous Time-Resolved Fluorescence (HTRF) binding assay. The conditions noted are these: PD-L1-His 10 nM final, PD-1-Ig 20 nM final; inhibitors pre-incubated with PD-L1-His for 15 m. A digest of the protocol: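 Compounds pre-incubated 15 min with human PD-L1(18-239)-His (10 nM final), then PD-1(25-167)-Ig (20 nM final) added for 15 min, in dPBS with 0.1% BSA and 0.05% Tween-20. Eu-cryptate anti-Ig (1 nM) and APC anti-His (20 nM) added, 30 min equilibration, 665/620 nm ratio read; IC50 reported.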
With `CCCC[C@H]1C(=O)N(C)[C@@H](CCCC)C(=O)N[C@@H](CCC(=O)O)C(=O)N[C@H](C(N)=O)CSCC(=O)N[C@@H](Cc2ccc(F)cc2)C(=O)N2CCCC[C@H]2C(=O)N[C@@H](CC(N)=O)C(=O)N2CCC[C@H]2C(=O)N[C@@H](CNC(=O)C(C)(C)C)C(=O)N[C@@H](CC(C)C)C(=O)N2C[C@H](O)C[C@H]2C(=O)N[C@@H](Cc2c[nH]c3ccccc23)C(=O)N[C@@H](CCN)C(=O)N[C@@H](Cc2cn(CC(=O)O)c3ccccc23)C(=O)N1C` [Example 20130] ({CH2CO}-[Phe(4-F)][Pip]NP[Dap](Piv)L[Hyp]W[Dab][Trp(1-CH2COOH)][NMeNle][NMeNle]EC-NH2; thioether N-14), the IC50 is 11.8 nM.
Under `CCCC[C@H]1C(=O)N(C)[C@@H](CCCC)C(=O)N[C@@H](CCC(N)=O)C(=O)N[C@H](C(N)=O)CSCC(=O)N[C@@H](Cc2ccc(F)cc2)C(=O)N2CCCC[C@H]2C(=O)N[C@@H](CC(N)=O)C(=O)N2CCC[C@H]2C(=O)N[C@@H](CNC(=O)C(C)(C)C)C(=O)N[C@@H](CC(C)C)C(=O)N2C[C@H](O)C[C@H]2C(=O)N[C@@H](Cc2c[nH]c3ccccc23)C(=O)N[C@@H](CCN)C(=O)N[C@@H](Cc2cn(C)c3ccccc23)C(=O)N1C` [Example 20150] ({CH2CO}-[Phe(4-F)][Pip]NP[Dap](Piv)L[Hyp]W[Dab][Trp(1-Me)][NMeNle][NMeNle]QC-NH2; thioether N-14) stands 12.5 nM.
`CCCC[C@H]1C(=O)N(C)[C@@H](CCCC)C(=O)N[C@@H](CCC(=O)O)C(=O)N[C@H](C(N)=O)CSCC(=O)N[C@@H](Cc2ccc(F)cc2)C(=O)N2CCCC[C@H]2C(=O)N[C@@H](CC(=O)O)C(=O)N2CCC[C@H]2C(=O)N[C@@H](CNC(=O)C(C)(C)C)C(=O)N[C@@H](CC(C)C)C(=O)N2C[C@H](O)C[C@H]2C(=O)N[C@@H](Cc2c[nH]c3ccccc23)C(=O)N[C@@H](CCN)C(=O)N[C@@H](Cc2cn(CC(=O)O)c3ccccc23)C(=O)N1C` [Example 20170] ({CH2CO}-[Phe(4-F)][Pip]DP[Dap](Piv)L[Hyp]W[Dab][Trp(1-CH2COOH)][NMeNle][NMeNle]EC-NH2; thioether N-14) gave an IC50 of 14 nM.
Under `CCCC[C@H]1C(=O)N(C)[C@@H](CCCC)C(=O)N[C@@H](CC(C)C)C(=O)N[C@H](C(N)=O)C(C)(C)SCC(=O)N[C@@H](Cc2ccc(F)cc2)C(=O)N2CCCC[C@H]2C(=O)N[C@@H](CC(=O)O)C(=O)N2CCC[C@H]2C(=O)N[C@@H](CNC(=O)C(C)(C)C)C(=O)N[C@@H](CC(C)C)C(=O)N2C[C@H](O)C[C@H]2C(=O)N[C@@H](Cc2c[nH]c3ccccc23)C(=O)N[C@@H](CCNC(=O)C(C)(C)C)C(=O)N[C@@H](Cc2cn(CC(=O)O)c3ccccc23)C(=O)N1C` [Example 20180] ({CH2CO}-[Phe(4-F)][Pip]DP[Dap](Piv)L[Hyp]W[Dab](Piv)[Trp(1-CH2COOH)][NMeNle][NMeNle]L[Pen]-NH2; thioether N-14) stands 14.1 nM.
Under `CCCC[C@H]1C(=O)N(C)[C@@H](CCCC)C(=O)N[C@@H](CC(C)C)C(=O)N[C@H](C(N)=O)CSCC(=O)N[C@@H](Cc2ccc(F)cc2)C(=O)N2CCCC[C@H]2C(=O)N[C@@H](CC(=O)O)C(=O)N2CCC[C@H]2C(=O)N[C@@H](CNC(=O)C(C)(C)C)C(=O)N[C@@H](CC(C)C)C(=O)N2C[C@H](O)C[C@H]2C(=O)N[C@@H](Cc2c[nH]c3ccccc23)C(=O)N[C@@H](CCN)C(=O)N[C@@H](Cc2cn(C)c3ccccc23)C(=O)N1C` [Example 20190] ({CH2CO}-[Phe(4-F)][Pip]DP[Dap](Piv)L[Hyp]W[Dab][Trp(1-Me)][NMeNle][NMeNle]LC-NH2; thioether N-14) stands 14.2 nM; under `CCCC[C@H]1C(=O)N(C)[C@@H](CCCC)C(=O)N[C@@H](CC(C)C)C(=O)N[C@H](C(N)=O)CSCC(=O)N[C@@H](Cc2ccc(F)cc2)C(=O)N2CCCC[C@H]2C(=O)N[C@@H](CC(N)=O)C(=O)N2CCC[C@H]2C(=O)N[C@@H](CNC(=O)C(C)(C)C)C(=O)N[C@@H](CC(C)C)C(=O)N2C[C@H](O)C[C@H]2C(=O)N[C@@H](Cc2c[nH]c3ccccc23)C(=O)N[C@@H](CCNC(=O)C(C)(C)C)C(=O)N[C@@H](Cc2cn(CC(=O)O)c3ccccc23)C(=O)N1C` [Example 20200] ({CH2CO}-[Phe(4-F)][Pip]NP[Dap](Piv)L[Hyp]W[Dab](Piv)[Trp(1-CH2COOH)][NMeNle][NMeNle]LC-NH2; thioether N-14), 15.8 nM; under `CCCC[C@H]1C(=O)N(C)[C@@H](CCCC)C(=O)N[C@@H](CC(C)C)C(=O)N[C@H](C(N)=O)C(C)(C)SCC(=O)N[C@@H](Cc2ccc(F)cc2)C(=O)N2CCCC[C@H]2C(=O)N[C@@H](CC(=O)O)C(=O)N2CCC[C@H]2C(=O)N[C@@H](CNC(=O)C(C)(C)C)C(=O)N[C@@H](CC(C)C)C(=O)N2C[C@H](O)C[C@H]2C(=O)N[C@@H](Cc2c[nH]c3ccccc23)C(=O)N[C@@H](CCN)C(=O)N[C@@H](Cc2cn(C)c3ccccc23)C(=O)N1C` [Example 20210] ({CH2CO}-[Phe(4-F)][Pip]DP[Dap](Piv)L[Hyp]W[Dab][Trp(1-Me)][NMeNle][NMeNle]L[Pen]-NH2; thioether N-14), 16.4 nM.
Under `CCCC[C@H]1C(=O)N(C)[C@@H](CCCC)C(=O)N[C@@H](CCC(N)=O)C(=O)N[C@H](C(N)=O)C(C)SCC(=O)N[C@@H](Cc2ccc(F)cc2)C(=O)N2CCCC[C@H]2C(=O)N[C@@H](CC(N)=O)C(=O)N2CCC[C@H]2C(=O)N[C@@H](CNC(=O)C(C)(C)C)C(=O)N[C@@H](C(C)C)C(=O)N2C[C@H](O)C[C@H]2C(=O)N[C@@H](Cc2c[nH]c3ccccc23)C(=O)N[C@@H](CCN)C(=O)N[C@@H](Cc2cn(C)c3ccccc23)C(=O)N1C` (stereo partly shown) [Example 20220] stands 16.6 nM; under `CCCC[C@H]1C(=O)N(C)[C@@H](CCCC)C(=O)N[C@@H](CCC(=O)O)C(=O)N[C@H](C(N)=O)CSCC(=O)N[C@@H](Cc2ccc(F)cc2)C(=O)N2CCCC[C@H]2C(=O)N[C@@H](CC(N)=O)C(=O)N2CCC[C@H]2C(=O)N[C@@H](CNC(=O)C(C)(C)C)C(=O)N[C@@H](CC(C)C)C(=O)N2C[C@H](O)C[C@H]2C(=O)N[C@@H](Cc2c[nH]c3ccccc23)C(=O)N[C@@H](CCNC(=O)C(C)(C)C)C(=O)N[C@@H](Cc2cn(C)c3ccccc23)C(=O)N1C` [Example 20230] ({CH2CO}-[Phe(4-F)][Pip]NP[Dap](Piv)L[Hyp]W[Dab](Piv)[Trp(1-Me)][NMeNle][NMeNle]EC-NH2; thioether N-14), 16.6 nM.
For the compound `CCCC[C@H]1C(=O)N(C)[C@@H](CCCC)C(=O)N[C@@H](CCC(N)=O)C(=O)N[C@H](C(N)=O)CSCC(=O)N[C@@H](Cc2ccc(F)cc2)C(=O)N2CCCC[C@H]2C(=O)N[C@@H](CC(=O)O)C(=O)N2CCC[C@H]2C(=O)N[C@@H](CNC(=O)C(C)(C)C)C(=O)N[C@@H](CCCCN)C(=O)N2C[C@H](O)C[C@H]2C(=O)N[C@@H](Cc2c[nH]c3ccccc23)C(=O)N[C@@H](CCN)C(=O)N[C@@H](Cc2cn(C)c3ccccc23)C(=O)N1C` [Example 20240] ({CH2CO}-[Phe(4-F)][Pip]DP[Dap](Piv)K[Hyp]W[Dab][Trp(1-Me)][NMeNle][NMeNle]QC-NH2; thioether N-14), the IC50 came out at 18.4 nM. The IC50 values of the last two compounds are within 1.5-fold of each other.
